Consider 1 compound from ChEMBL document CHEMBL5052835, “Slc26a3 inhibitors and use thereof” (2021).

The source made the active and inactive calls. The calls are words filed in the database; no cut-off is given here.

In assay [1] the test system is Mus musculus. The assay can be described thus: In vivo inhibition of slc26a3 in loperamide-induced constipation model of cystic fibrosis mouse at 5 mg/kg, po assessed as reduction in pellet number. Format: functional, organism-based.
Assay [2] concerns the target T1, Chloride anion exchanger (Mus musculus) (UniProt Q9WVC8).
T1 sequence (whole entry): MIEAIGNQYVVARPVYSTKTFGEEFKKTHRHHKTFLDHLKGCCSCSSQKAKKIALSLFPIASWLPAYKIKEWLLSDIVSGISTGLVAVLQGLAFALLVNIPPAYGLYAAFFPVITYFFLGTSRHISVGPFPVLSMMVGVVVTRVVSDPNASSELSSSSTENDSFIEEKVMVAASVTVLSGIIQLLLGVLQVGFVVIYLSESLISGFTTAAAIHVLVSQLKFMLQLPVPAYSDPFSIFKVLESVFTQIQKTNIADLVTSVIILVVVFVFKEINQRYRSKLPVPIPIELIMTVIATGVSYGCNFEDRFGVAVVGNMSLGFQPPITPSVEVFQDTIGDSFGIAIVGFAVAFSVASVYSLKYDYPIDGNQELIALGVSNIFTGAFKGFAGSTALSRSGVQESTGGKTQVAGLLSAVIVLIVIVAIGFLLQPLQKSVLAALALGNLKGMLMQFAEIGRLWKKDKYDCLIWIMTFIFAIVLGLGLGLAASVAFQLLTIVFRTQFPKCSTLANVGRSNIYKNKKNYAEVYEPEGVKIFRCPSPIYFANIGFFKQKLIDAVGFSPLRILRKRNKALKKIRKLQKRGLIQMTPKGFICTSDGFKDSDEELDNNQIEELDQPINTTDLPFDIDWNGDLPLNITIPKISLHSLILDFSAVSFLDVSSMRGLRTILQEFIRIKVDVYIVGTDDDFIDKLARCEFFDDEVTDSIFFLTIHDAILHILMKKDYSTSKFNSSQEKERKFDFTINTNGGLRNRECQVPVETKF
The assay can be described thus: Inhibition of mouse Slc26a3 transfected in rat FRT cells at 10 uM preincubated with forskolin, 8-Br-cGMP and PMA and measured by fluorescence assay relative to control. In kind it is cell-based.

The subject of the next assay is Jejunum. Briefly: Inhibition of fluid absorption in mid-jejunal loops isolated from female CD-1 mouse at 10 uM assessed as effect on reduction in loop weight/length ratio in presence of 10 microM tenapanor. Format: functional, tissue-based.
The target in another assay is T2, Pendrin (Mus musculus) (UniProt Q9R155).
T2 sequence (whole entry): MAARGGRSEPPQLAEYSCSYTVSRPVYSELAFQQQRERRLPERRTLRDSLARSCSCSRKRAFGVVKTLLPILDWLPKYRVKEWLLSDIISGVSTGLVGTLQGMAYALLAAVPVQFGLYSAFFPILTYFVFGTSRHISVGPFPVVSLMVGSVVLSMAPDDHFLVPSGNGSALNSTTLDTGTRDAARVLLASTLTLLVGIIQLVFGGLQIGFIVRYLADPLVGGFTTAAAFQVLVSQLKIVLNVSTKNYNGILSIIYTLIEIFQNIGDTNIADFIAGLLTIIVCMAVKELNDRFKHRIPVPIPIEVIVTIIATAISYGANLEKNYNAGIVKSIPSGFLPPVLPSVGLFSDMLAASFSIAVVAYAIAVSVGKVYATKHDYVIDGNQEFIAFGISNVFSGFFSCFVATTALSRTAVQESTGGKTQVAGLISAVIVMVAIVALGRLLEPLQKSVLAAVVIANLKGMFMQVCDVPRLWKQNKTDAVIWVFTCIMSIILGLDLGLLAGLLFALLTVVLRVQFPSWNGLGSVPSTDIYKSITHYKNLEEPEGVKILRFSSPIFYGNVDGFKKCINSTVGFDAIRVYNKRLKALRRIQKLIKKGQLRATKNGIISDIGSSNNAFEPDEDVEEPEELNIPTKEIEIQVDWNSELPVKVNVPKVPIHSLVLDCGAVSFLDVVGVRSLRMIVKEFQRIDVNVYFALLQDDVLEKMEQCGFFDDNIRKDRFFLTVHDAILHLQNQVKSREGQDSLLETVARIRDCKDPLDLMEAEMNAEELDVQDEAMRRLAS
Briefly: Inhibition of mouse Slc26a4-mediated Cl-/ I- exchange at 10 uM measured by cell-based fluorescence assay.

Assay [3] has as its system Mus musculus. The assay can be described thus: Inhibition of oxalate absorption in high oxalate and low calcium diet-induced oxalate nephropathy model of mouse at 5 mg/kg, po assessed as reduction in urine sediment. Format: functional, organism-based.
Assay [4] has as its target T3, Anoctamin-1 (Mus musculus) (UniProt Q8BHY3).
T3 sequence (whole entry): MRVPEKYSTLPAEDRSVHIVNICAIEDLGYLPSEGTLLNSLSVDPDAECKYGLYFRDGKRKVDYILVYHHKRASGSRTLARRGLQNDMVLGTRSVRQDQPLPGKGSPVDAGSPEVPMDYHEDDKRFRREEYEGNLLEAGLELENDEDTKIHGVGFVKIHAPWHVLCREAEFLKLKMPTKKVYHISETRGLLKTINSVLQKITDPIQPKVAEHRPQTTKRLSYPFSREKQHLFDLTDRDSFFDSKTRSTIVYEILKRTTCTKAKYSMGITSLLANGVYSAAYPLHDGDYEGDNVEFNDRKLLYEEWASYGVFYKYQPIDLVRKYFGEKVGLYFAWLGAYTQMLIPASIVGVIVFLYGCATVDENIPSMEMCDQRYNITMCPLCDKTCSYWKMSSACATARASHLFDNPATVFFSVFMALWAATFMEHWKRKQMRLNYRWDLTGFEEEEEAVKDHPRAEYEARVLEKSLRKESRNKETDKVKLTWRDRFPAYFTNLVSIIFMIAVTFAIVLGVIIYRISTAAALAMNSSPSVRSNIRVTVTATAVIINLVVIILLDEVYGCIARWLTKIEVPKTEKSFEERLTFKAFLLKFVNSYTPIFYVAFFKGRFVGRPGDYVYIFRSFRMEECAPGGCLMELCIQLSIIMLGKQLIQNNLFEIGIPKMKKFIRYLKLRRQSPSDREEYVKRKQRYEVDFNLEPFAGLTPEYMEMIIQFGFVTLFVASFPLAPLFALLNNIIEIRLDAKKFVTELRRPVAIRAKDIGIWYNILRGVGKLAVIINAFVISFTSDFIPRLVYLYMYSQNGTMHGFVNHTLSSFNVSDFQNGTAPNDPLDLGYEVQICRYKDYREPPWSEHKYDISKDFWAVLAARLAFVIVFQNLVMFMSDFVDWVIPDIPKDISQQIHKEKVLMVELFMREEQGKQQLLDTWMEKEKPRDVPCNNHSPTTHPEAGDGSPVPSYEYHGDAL
Briefly: Inhibition of mouse TMEM16A at 10 uM measured by cell-based fluorescence assay.

For assay [5], the system named is Mus musculus. Briefly: In vivo inhibition of slc26a3 in loperamide-induced constipation model of female CD-1 mouse at 5 mg/kg, po co-administered with tenapanor assessed as reduction in pellet number. In kind it is functional, organism-based.
The test system of assay [6] is Mus musculus. The assay can be described thus: In vivo inhibition of slc26a3 in loperamide-induced constipation model of cystic fibrosis mouse at 5 mg/kg, po assessed as reduction in stool water content. Format: functional, organism-based.
Assay [7] deals with Mus musculus. Briefly: Inhibition of oxalate absorption in high oxalate and low calcium diet-induced oxalate nephropathy model of mouse at 5 mg/kg, po assessed as reduction in kidney damage. Format: functional, organism-based.

For `Cc1c(CC(=O)O)c(=O)oc2c(C)c(OCc3cccc(Br)c3)ccc12`, the inhibition entry in the assay on Mus musculus [1], in the assay on Jejunum, with Mus musculus [3], with Mus musculus [5], with Mus musculus [6] and with Mus musculus [7] was “Active” throughout. The inhibition (usually the drop in the measured response relative to a control, in per cent) in assay [2] is above 50%. Besides, the inhibition result (at Pendrin (Mus musculus); in assay [4]) was “inactive” in each case.
